This is an account of results in patent US9623065B2, “Kind of polygonum capitatum extract, its application and a preparation containing the polygonum capitatum extract” (Zhejiang Sanzheng Biotechnology Co., Ltd., priority 2013, dated 2017).

Experiment [1] has as its system alloxan hyperglycemia model mice. The experiment in a line: Blood glucose of alloxan hyperglycemia model mice, comparison of extraction methods (Test Case 4). The settings on record: dose 0.5 mg, fasting. Type of experiment: in vivo, KM mice.
Description: Take 460 KM mice, with a weight of (20±2) g, half male and half female, let them to adapt to the environment for 7 days. Randomly select 6 male mice and 6 female mice as the blank control group, keep them fasted but water is supplied to them for 18 hours, use the physiological saline to prepare the 1.1% alloxan, and store it in an ice water bath. Carry out the intraperitoneal injection according to the ratio of 110 mg/kg, the control group is injected with the isodose physiological saline, let them eat after 1 h recovery. Use the same modeling method in the second day. 3 days later (72 h, normal diet), then fasting 12 hours, and then cut their tails to take a few drops of blood, and then fasting blood glucose is measured with glucose oxidase method, the mice with the blood glucose value greater than 11.1 mmol/L are the mice that successfully modeled.
Among the 460 KM mice, 12 of them belong to the blank control group, the remaining mice are used to modeling. After the modeling the mice with the blood glucose values measured greater than 11.1 mmol/L. In the design process each experimental group has 12 mice.
Take the model mice, randomly divide then into 16 groups, namely the water extraction (high, medium and low) dose group, the alcohol extraction (high, medium and low) dose group, the water and alcohol extraction (high, medium and low) dose group, the modeling group, positive group and blank control group (normal mice), please refer to Table 1.
Use surgical scissors to cut 2-3 mm of a mouse tail, press the tail to take a few drops of blood and place in the EP tube, first add 12 μL 15 g/L bipotassium EDTA solution, high speed centrifuge it (10000 r/min) for 5 min. Wait till the blood is stratified, take the upper layer serum 10 μL, plus 30 μL physiological saline, shake it evenly; and take 10 μL the dilute serum and put into a EP tube, add 1 mL glucose (Glu) oxidase, shake it evenly, keep at 37° C. for 15 min, the sample (U) is to be measured. Then take the physiological saline and calibrator (c) 10 μL respectively, add 1 mL glucose oxidase, shake evenly, keep at 37° C. for 15 min, determine the absorbance (A) with 505 nm wavelength after adjusting the blank tube to zero. […]
(§1) This experiment adopts the GOD-POD method for determination of serum glucose concentration, the principle of this method is POD in serum glucose is oxidized into D-gluconic acid in the presence of GOD, and generate H2O2; the latter and 4-amino antipyrine and phenol form red benzophenone imine under the effect of peroxidase (POD) benzophenone imine, the depth of the color of the ketone compounds is directly proportional to the content of glucose. Determine the absorbance values of the standard tube and the sample tube respectively, and then calculate the content of glucose.
The test system is the same in experiment [2]. Kind of experiment: Efficacy test of tablet, oral liquid, capsule, granules in alloxan hyperglycemia model mice (Test Cases 5-8). It counts as in vivo, KM mice. The settings on record: dose 0.5 mg.
Description: Take 80 KM mice, with a body weight of (20+2) g, half male and half female, and let them to adapt to the environment for 7 days. Randomly select 6 male mice and female mice as the blank control group, fasted and supplied with water for 18 h. Prepare 1.1% alloxan with physiological saline, and keep it in ice water bath. Carry out intraperitoneal injection according to a dose of 110 mg/kg, the mice of the control group are to be injected with physiological saline, and then fast them 12 hours, use the same modeling method in the second day. 3 days later (72 h, restore to normal diet), then fast 12 h, and then cut the tail to take a few drops of blood. The fasting blood glucose was measured with glucose oxidase method. The mice that have a blood glucose value greater than 11.1 mmol/L are mice that have been successfully modeled.
Among the 80 KM mice, 12 are as the blank control group, the remaining mice are used to modeling. After modeling, find the mice with the blood glucose values measured more than 11.1 mmol/L. In the experiment design process each group is set with 12 mice, the number of female mice are larger in the experimental results, so the number of female mice designed a dose is 6-8 only (8 with only statistical significance), the tails of some of the male model mice may be damaged, which is not conducive to the blood sampling in the next step, therefore it is not designed in this experimental group.
Use surgical scissors to cut 2-3 mm of a mouse tail, press the tail to take a few drops of blood and place in the EP tube, first add 12 μL 15 g/L bi-potassium EDTA solution, high speed centrifuge it (10000 r/min) for 5 min. Wait till the blood is stratified, take the upper layer serum 10 μL, plus 30 μL physiological saline, shake it evenly; and take 10 μL the dilute serum and put into a EP tube, add 1 mL glucose (Glu) oxidase, shake evenly, keep at 37° C. for 15 min, the sample (U) is to be measured. Then take the physiological saline and calibrator (c) 10 μL respectively, add 1 mL glucose oxidase, shake it evenly, keep at 37° C. for 15 min, determine the absorbance (A) with 505 nm wavelength after adjusting the blank tube to zero. Sample Glu (mmol/L)=Au/Ac*Cc
Determine the fasting blood glucose values corresponding to the administration of 7 d, 14 d, 21 d and 28 d after the success of modeling (fasted but water is supplied for 12 h).
as §1
Experiment [3] deals with 3T3-L1 adipocyte IR model. The experiment in a line: Influence of glucose utilization on the 3T3-L1 adipocyte insulin resistance (IR) model. It counts as cell-based, mouse. Here is the method: 3T3-L1 mouse embryonic fibroblast cells, are derived from the Institute of Life Science of Chinese Academy of Sciences. Plant the 3T3-L1 preadipocytes into the 25 cm2 cell culture plate, add 6 ml normal culture medium, keep it at culture conditions of 37° C. and 5% CO2, change liquid in the next day. Pass or store it in freezing conditions after the 80% cell fused.
Inoculate the 3T3-L1 preadipocytes at the density of 5×10^3 in a 24-hole culture plate, wait until the cells grow to contact inhibition, replace the cell culture medium with differentiation liquid A (0.5 mmol/L IBMX, 0.1 umol/L DEX, 10 mg/L INS) and culture them for 48 h, then replace with the induction differentiation liquid (10 mg/L) to continuously culture for 48 h B, change the normal culture medium to continue culturing, and change the liquid once every 2 days, 90% of the above induced differentiation cells will have a mature phenotype after 6-8 days.
After counting the 3T3-L1 cells in logarithmic growth phase, inoculate them at the density of 5*10^3 each hole onto 24-hole culture plate, then put the culture plate into the CO2 incubator, under the conditions of a temperature of 37° C., 5% CO2 and saturated humidity, culture them to growth inhibition, induction differentiation to mature adipocytes. Add the following processing factors: • The control group shall be continued with their normal culture medium (DMEM high glucose culture liquid containing 10% FBS) • The model group shall be given 1 umol DEX normal culture medium; • Other cells shall be used in each drug group experiment
After counting the 3T3-L1 cell in logarithmic growth phase, inoculate each hole with density of 5×10^3 cells in 24-hole culture plate. According to the IR models preparation method of 2.3, divide the mature 3T3-L1 adipocytes into a normal culture group and model group, the model group can also be divided into a model control group and each drug group. The model group shall be given 1 umol DEX to react for 48 h. After the models are built, administer the drug as per the experimental groups and the concentration of drug, in 3 parallel plates. In 24 h, 48 h the cell morphologies shall be observed and take the supernatant to be tested on the semi automatic biochemical instrument, determine the glucose (GLU) content in the culture solution according to the descriptions of the kit.

On to `C[C@H]1O[C@H](O[C@H]2[C@H](O)[C@@H](O)[C@@H](O[C@H]3[C@H](O)[C@@H](O)C(O)O[C@@H]3CO)O[C@@H]2CO)[C@H](O)[C@@H](O)[C@@H]1N[C@H]1C=C(CO)[C@@H](O)[C@H](O)[C@H]1O` (stereo partly shown) [Acarbose], for which the “Blood glucose level 7 d” value in experiment [1] (7 d) was 19.23 ± 7.54 mmol/L; in experiment [2] (Table 8) it was 19.23 ± 7.54 mmol/L; in experiment [2] (Table 9), 19.23 ± 7.54 mmol/L; in experiment [2] (Table 10, in mmol/L), 19.23 ± 7.54; in experiment [2] (Table 11, in mmol/L) it was 19.23 ± 7.54. The “Blood glucose level 14 d” value in experiment [1] (14 d) came to 18.00 ± 6.99 mmol/L; in experiment [2] (Table 8), 18.00 ± 6.99 mmol/L; in experiment [2] (Table 9) it was 18.00 ± 6.99 mmol/L; in experiment [2] (Table 10, in mmol/L) it was 18.00 ± 6.99; in experiment [2] (Table 11, in mmol/L), 18.00 ± 6.99. The “Blood glucose level 21 d” value in experiment [1] (21 d) stood at 19.99 ± 6.69 mmol/L; in experiment [2] (Table 8), 19.99 ± 6.69 mmol/L; in experiment [2] (Table 9), 19.99 ± 6.69 mmol/L; in experiment [2] (Table 10, in mmol/L), 19.99 ± 6.69; in experiment [2] (Table 11, in mmol/L) it was 19.99 ± 6.69. In addition, the “Blood glucose level 28 d” value in experiment [1] (28 d) came out at 22.81 ± 7.72 mmol/L; in experiment [2] (Table 8) it was 22.81 ± 7.72 mmol/L; in experiment [2] (Table 9), 22.81 ± 7.72 mmol/L; in experiment [2] (Table 10, in mmol/L), 22.81 ± 7.72; in experiment [2] (Table 11, in mmol/L), 22.81 ± 7.72.
Take `CN(CCOc1ccc(CC2SC(=O)NC2=O)cc1)c1ccccn1` (stereo not shown) [ROG]: the “Average 24 h GLU content” value stood at 22.24 mmol/L in experiment [3] (3.125 ug/ml, first series); 22.04 mmol/L in experiment [3] (12.5 ug/ml, first series); 21.84 mmol/L in experiment [3] (50 ug/ml, culture supernatant, first series (model control 23.08)); 25.38 mmol/L in experiment [3] (100 ug/ml, second series (model control 27.72)). In addition, the “Average 48 h GLU content” value worked out at 20.46 mmol/L in experiment [3] (3.125 ug/ml, first series); 21.67 mmol/L in experiment [3] (12.5 ug/ml, first series); 20.53 mmol/L in experiment [3] (50 ug/ml, culture supernatant, first series (model control 22.18)); 24.64 mmol/L in experiment [3] (100 ug/ml, second series (model control 26.27)).
